Data on 1 compound can be found in US10300052B2, “Methods for increasing CFTR activity” (THE UAB RESEARCH FOUNDATION, priority 2012, dated 2019).

Entries after “also recorded” stand apart in the source; their conditions may differ.

One assay deals with HBE cells. Nature of the assay: μOCT imaging of airway epithelial function in HBE cells containing WT-CFTR. The assay is classed as cell-based, human. As for the experimental part:
ASL depth is shown as red bar. White scale bar=10 μm.
FIGS. 4A-4D show the effects of CFTR activators on airway epithelial function in human bronchial epithelial cells by μOCT. Control HBE cells containing a defective CFTR (designated control, CF) and HBE cells containing a WT-CFTR (designated control and VX-770, wild-type) received vehicle alone (control; 0.2% DMSO) or ivacaftor (10 μM). FIGS. 4A-4D show ASL depth (FIG. 4A), PCL depth (FIG. 4B), cilia beat frequency (FIG. 4C), and mucociliary transport (MCT) rate (FIG. 4D) as quantified from μOCT images.
FIGS. 5A-5D show the effects of CFTR activators on airway epithelial function in human bronchial epithelial cells by μOCT. […] CSE was applied apically and ivacaftor basolaterally. Cells were exposed to each condition for 24 hrs. ASL depth is shown as a dark bar. White scale bar=10 μm. FIGS. 5B-5D show ASL depth (FIG. 5B), cilia beat frequency (FIG. 5C), and mucociliary transport (MCT) rate (FIG. 5D) as quantified from μOCT images. Data are derived from 5 measures per well, and 3 wells per condition.
The effect of CFTR activators was evaluated using μOCT imaging in HBE cells (FIGS. 4A-4D). […] Mucus and the PCL layer that together comprise the airway surface liquid (ASL) layer can also be clearly visualized. As shown in FIGS. 4A-4D, from top to bottom, the air has no μOCT signal, while the mucus layer appears heterogeneous with high μOCT signal intensity. The PCL gel has a low μCT signal intensity compared with the mucus and monolayer and includes ciliary structures. The air-liquid interface, mucus-PCL interface, and apical cell surface are clearly defined so that ASL and PCL heights can be directly measured with submicrometer resolution. In addition to the different layers, cilia tips can be readily detected by μOCT, as they are brighter than the surrounding PCL and mucus. The tips maintain contact with the deep surface of mucus blanket and lift the mucus nearby by a few hundred nanometers during the effective stroke.
The results in this example, illustrated in FIGS. 4A-4D, confirm the results shown above that CFTR activators increase the activity of WT-CFTR. In FIGS. 4A-4D, control HBE cells containing a defective CFTR (designated control, CF) were used along with HBE cells containing a WT-CFTR (designated control and VX-770, wild-type). Control cells received vehicle alone (0.2% DMSO); ivacaftor was used in all cases at 10 μM. […] In terms of PCL depth, the PCL only extends approximately 7 microns (corresponding to the depth of the full length cilia); further increases are difficult to detect. For CBF, the rate of CBF may not be rate limiting in all conditions. For example, if the cilia were beating against thick mucus (caused for example by mucus overproduction or the inability to clear mucus normally), the CBF would be slower. However, in this assays the determination of CBF is made versus a normal control making meaning an increase in CBF may not be detected in all cases.
Data in FIGS. 5A-5D are derived from 5 measurements per well, with three wells per condition. In FIGS. 5A-5D, all cells contained WT-CFTR; control cells received DMSO vehicle ([…]), CSE indicates cells received 2% CSE extract administered apically; CSE indicates cells received 2% CSE extract administered apically and 10 μM ivacaftor administered basolaterally; VX-770 indicates cells received 10 μM ivacaftor administered basolaterally. All data were derived from μOCT images as described herein.
The μOCT system is a spectral-domain OCT implementation with several improvements to standard OCT that yield high resolution in both lateral and axial directions. The general layout and axial resolution characterization have been described (Liu et al., PLOSOne, 8(1), E54473-2013). A super-continuum source (Fianium SC450) provides the high-bandwidth, short coherence length light necessary for high axial resolution ([…]). […]

For another assay, the target named is T1, CFTR (Homo sapiens, UniProt P13569).
T1 construct: from tissue; host or cells: normal human trachea/bronchus from donor explant organs
Nature of the assay: Isc under voltage clamp in normal explanted human trachea. The conditions noted are these: ivacaftor 10 μM after amiloride 100 μM and forskolin 100 nM, voltage clamp (FIGS. 3A, 3B). As for the experimental part:
Serial addition of amiloride (100 μM), forskolin (100 nM), and ivacaftor (VX-770; 10 μM) or vehicle control is shown, followed by addition of ATP (10 μM), and CFTR Inh-172 (10 μM×2) as control additions.
The change in Isc following addition of ivacaftor (VX-770) or vehicle control is shown. *P<0.05, n=19, 24 samples/condition.
Ivacaftor also potentiated CFTR-dependent current in normal explanted human trachea examined under voltage clamp conditions (FIGS. 3A and B).
Samples of human trachea tissue were obtained from normal donor explant organs not selected for lung transplantation. Lung, mainstem bronchi, and trachea were resected en-bloc, transferred on wet ice, and large airways excised. Airway tissues were then immersed in ice cold DMEM following resection for transfer, then allowed to equilibrate to room temperature prior to mOCT imaging.
Short-circuit current (Isc) was measured under voltage clamp conditions using MC8 voltage clamps and P2300 Ussing chambers (Physiologic Instruments, San Diego, Calif.) as previously described (2). Monolayers were initially bathed on both sides with identical Ringer's solutions containing (in mM) 115 NaCl, 25 NaHCO3, 2.4 KH2PO4, 1.24 K2HPO4, 1.2 CaCl2, 1.2 MgC2, 10 D-glucose (pH 7.4). […] A one-second three-mV pulse was imposed every 10 seconds to monitor resistance calculated using Ohm's law. […]

T1 sequence (P13569 whole entry): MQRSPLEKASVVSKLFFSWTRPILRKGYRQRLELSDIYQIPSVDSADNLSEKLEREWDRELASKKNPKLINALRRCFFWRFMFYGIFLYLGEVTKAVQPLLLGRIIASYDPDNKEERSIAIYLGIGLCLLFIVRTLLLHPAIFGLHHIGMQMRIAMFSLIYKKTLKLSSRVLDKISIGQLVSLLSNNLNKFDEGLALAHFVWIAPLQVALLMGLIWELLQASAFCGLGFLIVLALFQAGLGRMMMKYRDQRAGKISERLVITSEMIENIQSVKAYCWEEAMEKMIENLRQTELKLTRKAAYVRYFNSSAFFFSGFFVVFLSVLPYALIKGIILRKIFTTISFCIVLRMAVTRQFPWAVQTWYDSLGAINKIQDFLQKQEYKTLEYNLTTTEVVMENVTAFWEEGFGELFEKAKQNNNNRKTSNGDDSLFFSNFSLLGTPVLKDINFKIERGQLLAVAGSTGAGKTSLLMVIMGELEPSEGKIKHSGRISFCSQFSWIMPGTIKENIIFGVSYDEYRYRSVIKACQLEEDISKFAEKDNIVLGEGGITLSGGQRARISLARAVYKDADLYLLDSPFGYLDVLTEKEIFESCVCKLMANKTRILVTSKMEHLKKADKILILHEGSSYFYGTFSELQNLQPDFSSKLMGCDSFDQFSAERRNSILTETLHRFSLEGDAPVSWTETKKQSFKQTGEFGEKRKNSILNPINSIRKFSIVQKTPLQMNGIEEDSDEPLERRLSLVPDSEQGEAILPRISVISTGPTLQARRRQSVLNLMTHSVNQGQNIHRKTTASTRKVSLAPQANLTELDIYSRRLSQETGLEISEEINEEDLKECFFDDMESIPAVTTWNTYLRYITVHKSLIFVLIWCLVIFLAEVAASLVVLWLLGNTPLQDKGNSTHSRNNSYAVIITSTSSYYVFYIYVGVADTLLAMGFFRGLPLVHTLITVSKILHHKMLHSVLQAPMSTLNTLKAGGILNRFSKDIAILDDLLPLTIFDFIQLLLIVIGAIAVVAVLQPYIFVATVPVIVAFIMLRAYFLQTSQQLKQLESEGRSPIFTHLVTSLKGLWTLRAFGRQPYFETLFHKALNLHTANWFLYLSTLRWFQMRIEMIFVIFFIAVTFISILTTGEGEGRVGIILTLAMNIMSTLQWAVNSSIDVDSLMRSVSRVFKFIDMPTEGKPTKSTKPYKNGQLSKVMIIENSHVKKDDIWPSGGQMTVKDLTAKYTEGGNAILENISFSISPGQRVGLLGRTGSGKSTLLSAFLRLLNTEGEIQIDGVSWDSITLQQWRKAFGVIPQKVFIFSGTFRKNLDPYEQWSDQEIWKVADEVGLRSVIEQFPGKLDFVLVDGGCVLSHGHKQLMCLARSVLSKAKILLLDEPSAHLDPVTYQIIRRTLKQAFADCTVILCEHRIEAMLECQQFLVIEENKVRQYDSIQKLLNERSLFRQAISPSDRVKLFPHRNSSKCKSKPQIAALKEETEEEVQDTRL

On to `CC(C)(C)c1cc(C(C)(C)C)c(NC(=O)c2c[nH]c3ccccc3c2=O)cc1O` [ivacaftor], for which the MCT result is given as “increased MCT to that seen in the control cells” in the assay with HBE cells (2% CSE apically plus ivacaftor 10 μM basolaterally, 24 hrs (FIG. 5D)) and “robust enhancement; also recorded: significantly increased” in the assay with HBE cells (ivacaftor alone 10 μM basolaterally, 24 hrs, vs control (FIG. 5D, FIG. 2D)). Further, the ASL depth entry in the assay with HBE cells (2% CSE apically plus ivacaftor 10 μM basolaterally, 24 hrs, vs CSE (FIG. 5B)) was “significantly increased”; in the assay with HBE cells (ivacaftor 10 μM, vs control wild-type and control CF HBE cells (FIG. 4A)), “increased ASL depth significantly above control”; in the assay with HBE cells (ivacaftor alone 10 μM basolaterally, 24 hrs, vs control (FIG. 5B)), “significantly increased”. Also, the PCL depth entry in the assay with HBE cells (ivacaftor 10 μM, as compared to control CF HBE cells (FIG. 4B)) was “increased”; in the assay on HBE cells (ivacaftor 10 μM, in comparison to control wild-type (FIG. 4B)) it was “not increased in a statistically significant manner”. Further, the CBF entry in the assay with HBE cells (ivacaftor 10 μM, as compared to control CF HBE cells (FIG. 4C)) is on record as “increased”; in the assay on HBE cells (ivacaftor 10 μM, in comparison to control wild-type (FIG. 4C)), “not increased in a statistically significant manner”. Further, the “overall MCT” value with HBE cells (ivacaftor 10 μM, as compared to control wild-type and control CF cells (FIG. 4D)) is recorded as “increased significantly”. At CFTR, the CFTR-dependent current result is listed as “potentiated”.
